Data from patent US9233978B2, “6-fused heteroaryldihydropyrimidines for the treatment and prophylaxis of hepatitis B virus infection” (Hoffmann-La Roche Inc., priority 2014, dated 2016).
pEC50: −log10 of the molar value. ≈ marks a conversion by molar mass, not a printed value. Read-outs that look alike come from different tables or passages of the source.

Legend:
HBV [1] = settings: HBV infected transgenic mouse or humanized mouse models; cited from earlier work
HBV [2] = test: Anti-HBV activity in vitro, HepG2.2.15 cells, extracellular HBV DNA by qPCR; assay type: cell-based; settings: HepG2.2.15 cells, HBV replication inhibited by 50%, extracellular HBV DNA by qPCR, five days after compound treatment, read-out: EC50
How it was run: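 Extracellular HBV DNA in culture supernatant was measured by qPCR after nucleic acid extraction. The supernatant came from constitutively replicating HepG2.2.15 cells exposed for five days to half-log-diluted compounds, with DMSO at 0.5% final. Cells had been plated overnight at 37 °C beforehand.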

[3] = Cytotoxicity in HepDE19 cells (CCK-8) and selectivity index; assay type: cell-based; settings: human, HepDE19 cells; CCK-8 cell viability; five days after treatment
How it was run: (§1)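 HepDE19 cells (DMEM-F12, 10% FBS) were treated with compound for five days, then given CCK-8 for 2 h at 37 °C and read at OD450 and OD630. CC50 is the concentration killing 50% of host cells. Selectivity index is CC50/EC50.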

HepDE19 cells = test: as above; assay type: cell-based; settings: CC50 (HepDE19) value / EC50 (HepG2.2.15) value
How it was run: as §1

[4] = Human microsomal metabolic stability; assay type: in vitro ADME; settings: human microsomes 0.5 mg/mL, 1 μM test compound, NADPH, 37° C., pH 7.4, 0-30 minutes
How it was run: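 1 μM compound with 0.5 mg/mL human liver microsomal protein in 100 mM phosphate pH 7.4 at 37° C, started with 1 mM NADPH or a NADPH-regenerating system. Sampled at 0–30 min, quenched in cold methanol with tolbutamide internal standard; remaining parent quantified by LC-MS/MS.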

Lysa solubility = assay type: physicochemical; settings: 0.05 M phosphate buffer (pH 6.5); for solubility thermodynamic: phosphate buffer, pH 6.5, aqueous buffer, thermodynamic from solid
How it was run: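 Duplicate samples dried from 10 mM DMSO stocks, taken up in 0.05 M phosphate buffer pH 6.5, stirred 1 h, shaken 2 h and left overnight. Filtrate and 1/10 dilution quantified by direct UV or HPLC-UV, in μg/mL; above 80% of the calculated maximum, reported as greater than that value.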

CYP3A4 = test: Cytochrome P450 induction screening assay, mRNA induction in human cryopreserved hepatocytes; assay type: in vitro ADME; settings: CYP3A4 mRNA relative induction, 24 hours, test compound up to 10 μM
Method: Human cryopreserved hepatocytes (Life Technologies, Carlsbad, USA) were thawed and cultured in collagen I coated 96-well plates with a density of 52,000 cells/well. After attachment, medium was changed and cells were pre-cultured overnight in hepatocyte maintenance medium (HMM; Lonza, Switzerland).
Test compounds were dosed to the cells next morning at an indicated concentration (up to 10 μM) in HMM culture media containing gentamycin and a constant 0.1% DMSO. Similarly, dilutions of the positive inducer compounds omeprazole (prototypical inducer of human CYP1A2; final concentrations: 1 and 10 μM), phenobarbital (prototypical inducer of human CYP2B6; final concentrations: 100 and 1000 μM) and rifampicin (prototypical inducer of human CYP3A4; final concentrations: 1 and 10 μM) were prepared from 1000 fold DMSO stock solutions in HMM containing gentamycin. Medium change was then performed and cells were exposed for 24 hours to test compounds, positive inducer compounds, or vehicle (0.1% DMSO), respectively.
At the end of the compound exposure period, medium was removed and cells lysed using 100 μL/well MagNA Pure LC RNA isolation tissue lysis buffer (Roche Diagnostics AG, Rotkreuz, Switzerland). Plates were then sealed and frozen at −80° C. until further workup.
mRNA isolation was performed using the MagNA Pure 96 system (Roche Diagnostics AG, Rotkreuz, Switzerland) and the respective cellular RNA large volume kit (Roche Diagnostics AG, Rotkreuz, Switzerland) from thawed samples diluted 1:1 with PBS. The volume of the cell lysis and an elution volume of 100 μL were used. 20 μl of the resulting mRNA suspension was then used for reverse transcription using 20 μl of the transcript or first stand cDNA synthesis kit (Roche prime Supply, Mannheim, Germany). The resulting cDNA was diluted with 40 μl of H2O before using for qRT-PCR. qRT-PCR was performed by using the forward and the reverse primer, the corresponding UPL (all from Microsynth, Balgach, Switzerland) and the Taqman Fast advanced master mix (Applied Biosystems), on an ABI 7900 machine (Applied Biosystems).
qRT-PCR Ct-values for the respective P450s were put into relation to the Ct-value of RN18S1 (microsynth, Balgach, Switzerland) of the same sample. Doing so, a respective Δct-value was calculated. Using the average of all Δct-values for the vehicle control samples, a ΔΔct-value was calculated for each sample (ΔΔct-value(sample)=Δct-value(sample)−average of Δct-value of all vehicle controls). The fold induction of the respective sample was calculated as 2^(−ΔΔct). The individual fold induction values were then averaged per treatment condition (usually n=3 biological replicates).
Relative induction values to the respective positive inducer compound condition (10 μM omeprazole for CYP1A2; 1000 μM Phenobarbital for CYP2B6; 10 μM rifampicin for CYP3A4) were then calculated from the fold induction values as follows: Relative induction (%)=100×(T−V)/(P−V)

[5] = Hepatitis B virus, HepG2.2.15, 120 h

COC(=O)C1=C(C)NC(c2ncc(F)cc2F)=N[C@H]1c1ccc(F)cc1Cl [Bay 41-4109]
in vivo efficacy (HBV DNA reduction) (HBV [1]): demonstrated in vivo efficacy with HBV DNA reduction

COC(=O)C1=C(CN2CCN3C(=O)N(CC4(C(=O)O)CCC4)C[C@@H]3C2)NC(c2nccs2)=N[C@H]1c1ccc(F)cc1Cl [Example 59, (R)-6-[(S)-2-(1-Carboxy-cyclobutylmethyl)-3-oxo-hexahydro-imidazo[1,5-a]pyrazin-7-ylmethyl]-4-(2-chloro-4-fluoro-phenyl)-2-thiazol-2-yl-1,4-dihydro-pyrimidine-5-carboxylic acid methyl ester]
pEC50 (HBV [2]; [5]): 7.96
CC50 at 5 days [3]: > 100 µM
Selectivity index (CC50/EC50) (HepDE19 cells): >9091
Human Microsomal Clearance [4]: 0.138 L/h/kg
solubility thermodynamic (Lysa solubility): > 0.685 mg/mL
% of Positive control (10 μM Rifampicin) (CYP3A4): 2.2%

COC(=O)C1=C(CN2CCN3C(=O)N(C(C)(C)C)C[C@@H]3[C@H]2C(=O)O)NC(c2nccs2)=N[C@H]1c1ccc(F)cc1Cl (single isomer, unassigned) [Example 86B]
pEC50 (HBV [2]; [5]): 8.40
CC50 at 5 days [3]: > 100 µM
Selectivity index (CC50/EC50) (HepDE19 cells): >25000
Human Microsomal Clearance [4]: 0.282 L/h/kg
solubility thermodynamic (Lysa solubility): > 0.74 mg/mL
% of Positive control (10 μM Rifampicin) (CYP3A4): 11%

CCOC(=O)C1=C(CN2CCN3C(=O)N(C)C[C@H]3[C@@H]2C(=O)O)NC(c2nccs2)=N[C@H]1c1cccc(F)c1Cl (single isomer, unassigned) [Example 91B]
pEC50 (HBV [2]; [5]): 8.70
CC50 at 5 days [3]: > 100 µM
Selectivity index (CC50/EC50) (HepDE19 cells): >50000
Human Microsomal Clearance [4]: 0.348 L/h/kg
solubility thermodynamic (Lysa solubility): > 0.705 mg/mL
% of Positive control (10 μM Rifampicin) (CYP3A4): 1.7%

COC(=O)C1=C(CN2CCN3C(=O)N(CC4(C(=O)O)CC4)C[C@@H]3C2)NC(c2nccs2)=N[C@H]1c1ccc(F)c(F)c1C [Example 38, 1-[[(8aS)-7-[[(4S)-4-(3,4-difluoro-2-methyl-phenyl)-5-methoxycarbonyl-2-thiazol-2-yl-1,4-dihydropyrimidin-6-yl]methyl]-3-oxo-5,6,8,8a-tetrahydro-1H-imidazo[1,5-a]pyrazin-2-yl]methyl]cyclopropanecarboxylic acid]
pEC50 (HBV [2]; [5]): 8.30
CC50 at 5 days [3]: 100 µM
Selectivity index (CC50/EC50) (HepDE19 cells): 21276
Human Microsomal Clearance [4]: 0.12 L/h/kg
solubility thermodynamic (Lysa solubility): 0.627 mg/mL (≈ 1040 µM)
% of Positive control (10 μM Rifampicin) (CYP3A4): 0.2%

CCOC(=O)C1=C(CN2CCN3C(=O)N(CC(C)(C)C(=O)O)C[C@@H]3C2)NC(c2nccs2)=N[C@H]1c1cccc(F)c1Cl [Example 19, 3-[(8aS)-7-[[(4R)-4-(2-chloro-3-fluoro-phenyl)-5-ethoxycarbonyl-2-thiazol-2-yl-1,4-dihydropyrimidin-6-yl]methyl]-3-oxo-5,6,8,8a-tetrahydro-1H-imidazo[1,5-a]pyrazin-2-yl]-2,2-dimethyl-propanoic acid]
pEC50 (HBV [2]; [5]): 8.52
CC50 at 5 days [3]: > 100 µM
Selectivity index (CC50/EC50) (HepDE19 cells): >30303
Human Microsomal Clearance [4]: 0.024 L/h/kg
solubility thermodynamic (Lysa solubility): > 0.727 mg/mL
% of Positive control (10 μM Rifampicin) (CYP3A4): 1%

CCOC(=O)C1=C(CN2CCN3C(=O)N(CC(C)C(=O)O)C[C@@H]3C2)NC(c2nccs2)=N[C@H]1c1cccc(F)c1Cl (stereo partly drawn) [Example 21, 3-[(8aS)-7-[[(4R)-4-(2-chloro-3-fluoro-phenyl)-5-ethoxycarbonyl-2-thiazol-2-yl-1,4-dihydropyrimidin-6-yl]methyl]-3-oxo-5,6,8,8a-tetrahydro-1H-imidazo[1,5-a]pyrazin-2-yl]-2-methyl-propanoic acid]
pEC50 (HBV [2]; [5]): 7.80
CC50 at 5 days [3]: > 100 µM
Selectivity index (CC50/EC50) (HepDE19 cells): >6211
Human Microsomal Clearance [4]: 0.162 L/h/kg
solubility thermodynamic (Lysa solubility): > 0.786 mg/mL
% of Positive control (10 μM Rifampicin) (CYP3A4): 2.4%

COC(=O)C1=C(CN2CCN3C(=O)N(C4CCC(C(=O)O)CC4)C[C@@H]3C2)NC(c2nccs2)=N[C@H]1c1ccc(F)cc1Cl (stereo partly drawn) [Example 73, 4-[(8aS)-7-[[(4R)-4-(2-chloro-4-fluoro-phenyl)-5-methoxycarbonyl-2-thiazol-2-yl-1,4-dihydropyrimidin-6-yl]methyl]-3-oxo-5,6,8,8a-tetrahydro-1H-imidazo[1,5-a]pyrazin-2-yl]cyclohexanecarboxylic acid]
pEC50 (HBV [2]): 8.05
CC50 at 5 days [3]: 70 µM
Selectivity index (CC50/EC50) (HepDE19 cells): 7778
Human Microsomal Clearance [4]: 0.486 L/h/kg
Lysa (Lysa solubility): 564 µg/mL
% of Positive control (10 μM Rifampicin) (CYP3A4): 0%
